Test results from ChEMBL document CHEMBL3734705, “Synthesis and in vitro cytotoxicity of novel C-12 substituted-14-deoxy-andrographolide derivatives as potent anti-cancer agents” (2015).
Calls of active or inactive are those of the source. No cut-off for these calls is given here.

Assays:
[1] = Cytotoxicity against human HL-60(TB) cells assessed as growth level at 10 uM after 48 hrs by SRB assay; assay type: functional
[2] = Cytotoxicity against human SW620 cells assessed as growth inhibition at 10 uM after 48 hrs by SRB assay; assay type: functional; conditions: SW-620, 48 h, read-out: GI
[3] = test system: MDA-MB-435; assay: Cytotoxicity against human MDA-MB-435 cells assessed as growth inhibition at 10 uM after 48 hrs by SRB assay; assay type: functional; conditions: MDA-MB-435, 48 h, read-out: GI
[4] = Cytotoxicity against human PC3 cells assessed as growth inhibition at 10 uM after 48 hrs by SRB assay; assay type: functional; conditions: PC-3, 48 h, read-out: GI
[5] = Cytotoxicity against human SF295 cells assessed as growth level at 10 uM after 48 hrs by SRB assay; assay type: functional, SF-295
[6] = test system: U-251; assay: Cytotoxicity against human U251 cells assessed as growth level at 10 uM after 48 hrs by SRB assay; assay type: functional
[7] = test system: MDA-MB-468; assay: Cytotoxicity against human MDA-MB-468 cells assessed as growth inhibition at 10 uM after 48 hrs by SRB assay; assay type: functional; conditions: MDA-MB-468, 48 h, read-out: GI
[8] = test system: SN12C; assay: Cytotoxicity against human SN12C cells assessed as growth level at 10 uM after 48 hrs by SRB assay; assay type: functional
[9] = test system: NCI-H322M; assay: Cytotoxicity against human NCI-H322M cells assessed as growth inhibition at 10 uM after 48 hrs by SRB assay; assay type: functional
[10] = test system: A498; assay: Cytotoxicity against human A498 cells assessed as growth level at 10 uM after 48 hrs by SRB assay; assay type: functional
[11] = Cytotoxicity against human RPMI8226 cells assessed as growth inhibition at 10 uM after 48 hrs by SRB assay; assay type: functional; conditions: RPMI-8226, 48 h, read-out: GI
[12] = Cytotoxicity against human UACC62 cells assessed as growth level at 10 uM after 48 hrs by SRB assay; assay type: functional, UACC-62
[13] = test system: SK-MEL-28; assay: Cytotoxicity against human SK-MEL-28 cells assessed as growth inhibition at 10 uM after 48 hrs by SRB assay; assay type: functional; conditions: SK-MEL-28, 48 h, read-out: GI
[14] = test system: K562; assay: Cytotoxicity against human K562 cells assessed as growth inhibition at 10 uM after 48 hrs by SRB assay; assay type: functional; conditions: K562, 48 h, read-out: GI
[15] = Cytotoxicity against human LOXIMVI cells assessed as growth level at 10 uM after 48 hrs by SRB assay; assay type: functional, LOX IMVI
[16] = test system: CCRF-CEM; assay: Cytotoxicity against human CCRF-CEM cells assessed as growth inhibition at 10 uM after 48 hrs by SRB assay; assay type: functional; conditions: read-out: GI
[17] = Cytotoxicity against human SNB19 cells assessed as growth inhibition at 10 uM after 48 hrs by SRB assay; assay type: functional; conditions: SNB-19, 48 h, read-out: GI
[18] = Cytotoxicity against human HCT116 cells assessed as growth level at 10 uM after 48 hrs by SRB assay; assay type: functional, HCT-116
[19] = test system: SK-MEL-28; assay: Cytotoxicity against human SK-MEL-28 cells assessed as growth level at 10 uM after 48 hrs by SRB assay; assay type: functional
[20] = Cytotoxicity against human DU145 cells assessed as growth level at 10 uM after 48 hrs by SRB assay; assay type: functional, DU-145
[21] = test system: CCRF-CEM; assay: Cytotoxicity against human CCRF-CEM cells assessed as growth level at 10 uM after 48 hrs by SRB assay; assay type: functional
[22] = test system: NCI-H226; assay: Cytotoxicity against human NCI-H226 cells assessed as growth level at 10 uM after 48 hrs by SRB assay; assay type: functional
[23] = Cytotoxicity against human SNB75 cells assessed as growth level at 10 uM after 48 hrs by SRB assay; assay type: functional, SNB-75
[24] = Cytotoxicity against human SF295 cells assessed as growth inhibition at 10 uM after 48 hrs by SRB assay; assay type: functional; conditions: SF-295, 48 h, read-out: GI
[25] = test system: M14; assay: Cytotoxicity against human M14 cells assessed as growth level at 10 uM after 48 hrs by SRB assay; assay type: functional
[26] = Cytotoxicity against human OVCAR4 cells assessed as growth level at 10 uM after 48 hrs by SRB assay; assay type: functional, OVCAR-4
[27] = test system: U-251; assay: Cytotoxicity against human U251 cells assessed as growth inhibition at 10 uM after 48 hrs by SRB assay; assay type: functional; conditions: U-251, 48 h, read-out: GI
[28] = test system: Malme-3M; assay: Cytotoxicity against human MALME-3M cells assessed as growth inhibition at 10 uM after 48 hrs by SRB assay; assay type: functional; conditions: read-out: GI
[29] = test system: ACHN; assay: Cytotoxicity against human ACHN cells assessed as growth inhibition at 10 uM after 48 hrs by SRB assay; assay type: functional; conditions: read-out: GI
[30] = Cytotoxicity against human UACC257 cells assessed as growth inhibition at 10 uM after 48 hrs by SRB assay; assay type: functional; conditions: UACC-257, 48 h, read-out: GI
[31] = Cytotoxicity against human HCT15 cells assessed as growth inhibition at 10 uM after 48 hrs by SRB assay; assay type: functional; conditions: HCT-15, 48 h, read-out: GI
[32] = Cytotoxicity against human NCI-ADR-RES cells assessed as growth level at 10 uM after 48 hrs by SRB assay; assay type: functional
[33] = Cytotoxicity against human SW620 cells assessed as growth level at 10 uM after 48 hrs by SRB assay; assay type: functional, SW-620
[34] = test system: MDA-MB-468; assay: Cytotoxicity against human MDA-MB-468 cells assessed as growth level at 10 uM after 48 hrs by SRB assay; assay type: functional
[35] = Cytotoxicity against human MOLT4 cells assessed as growth inhibition at 10 uM after 48 hrs by SRB assay; assay type: functional; conditions: MOLT-4, 48 h, read-out: GI
[36] = test system: Malme-3M; assay: Cytotoxicity against human MALME-3M cells assessed as growth level at 10 uM after 48 hrs by SRB assay; assay type: functional
[37] = test system: 786-0; assay: Cytotoxicity against human 786-0 cells assessed as growth level at 10 uM after 48 hrs by SRB assay; assay type: functional
[38] = Cytotoxicity against human RXF393 cells assessed as growth inhibition at 10 uM after 48 hrs by SRB assay; assay type: functional; conditions: RXF 393, 48 h, read-out: GI
[39] = Cytotoxicity against human COLO205 cells assessed as growth inhibition at 10 uM after 48 hrs by SRB assay; assay type: functional; conditions: COLO 205, 48 h, read-out: GI
[40] = test system: NCI-H23; assay: Cytotoxicity against human NCI-H23 cells assessed as growth level at 10 uM after 48 hrs by SRB assay; assay type: functional
[41] = Cytotoxicity against human HCC2998 cells assessed as growth inhibition at 10 uM after 48 hrs by SRB assay; assay type: functional; conditions: HCC 2998, 48 h, read-out: GI
[42] = test system: A498; assay: Cytotoxicity against human A498 cells assessed as growth inhibition at 10 uM after 48 hrs by SRB assay; assay type: functional; conditions: A498, 48 h, read-out: GI
[43] = Cytotoxicity against human BT549 cells assessed as growth level at 10 uM after 48 hrs by SRB assay; assay type: functional, BT-549
[44] = Cytotoxicity against human OVCAR8 cells assessed as growth inhibition at 10 uM after 48 hrs by SRB assay; assay type: functional; conditions: OVCAR-8, 48 h, read-out: GI

C=C1CC[C@@H]2[C@](C)(COC(C)=O)[C@H](OC(C)=O)CC[C@@]2(C)[C@@H]1C/C=C1/C(=O)OC[C@H]1OC(C)=O
Activity [1]: 79.11%
inhibition of growth at 10 µM [2]: 21.9%
inhibition of growth at 10 µM [3]: 66.9%
inhibition of growth at 10 µM [4]: 11.5%
Activity [5]: 95.02%
Activity [6]: 54.02%
inhibition of growth at 10 µM [7]: 92%
Activity [8]: 33.42%
growth inhibition (GI) [9]: inactive
Activity [10]: 90.57%
inhibition of growth at 10 µM [11]: 85.9%
Activity [12]: 29.71%
inhibition of growth at 10 µM [13]: 62.2%
inhibition of growth at 10 µM [14]: 88.9%
Activity [15]: -74.4%
inhibition of growth at 10 µM [16]: 11.4%
inhibition of growth at 10 µM [17]: 17%
Activity [18]: -37.34%
Activity [19]: 37.78%
Activity [20]: 50.88%
Activity [21]: -11.4%
Activity [22]: 23.61%
Activity [23]: 44.87%
inhibition of growth at 10 µM [24]: 4.98%
Activity [25]: 35.37%
Activity [26]: 66.49%
inhibition of growth at 10 µM [27]: 46%
inhibition of growth at 10 µM [28]: 22.3%
inhibition of growth at 10 µM [29]: 80.5%
inhibition of growth at 10 µM [30]: 33.5%
inhibition of growth at 10 µM [31]: 23%
Activity [32]: 24.99%
Activity [33]: -21.85%
Activity [34]: 7.98%
inhibition of growth at 10 µM [35]: 6.05%
Activity [36]: 77.72%
Activity [37]: -10.88%
inhibition of growth at 10 µM [38]: 7.35%
inhibition of growth at 10 µM [39]: 78%
Activity [40]: 80.92%
inhibition of growth at 10 µM [41]: 32.7%
inhibition of growth at 10 µM [42]: 9.43%
Activity [43]: 27.38%
inhibition of growth at 10 µM [44]: 72.9%
